Test results taken from PubChem BioAssay AID256 (DTP/NCI, 2004).
Toxic doses and inconclusive results are not listed. How the source made its calls: active means survival T/C of 150% or more; inactive means T/C below 125% in these data. Non-standard residues stand in square brackets, D forms with d. Residues, ends and D or L forms follow the SMILES beside them. ξ: configuration not given here. ξI = CCC(C)C(N)C(=O)O

Tested on: CD2F1 mice, L1210 leukemia ip, survival T/C
Test: NCI In Vivo Anticancer Drug Screen. Data for tumor model L1210 Leukemia (intraperitoneal) in CD2F1 (CDF1) mice
Settings: endpoint: mean survival time, higher = longer survival
Outline: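 Read-out first: treated-group measurement over vehicle-control measurement, expressed as a ratio. Animals bore a transplanted tumor line and were dosed with compound or vehicle.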

[1] = dose: 100.0 mg/kg/injection, schedule: Q01DX009 (ip), vehicle: Klucel (hydroxypropylcellulose) (HPC)
[2] = dose: 100.0 mg/kg/injection, schedule: Q04DX003 (ip), vehicle: saline with Tween-80
[3] = dose: 200.0 mg/kg/injection, schedule: Q01DX009 (ip), vehicle: Klucel (hydroxypropylcellulose) (HPC)
[4] = dose: 200.0 mg/kg/injection, schedule: Q04DX003 (ip), vehicle: saline with Tween-80
[5] = dose: 400.0 mg/kg/injection, schedule: Q01DX009 (ip), vehicle: Klucel (hydroxypropylcellulose) (HPC)
[6] = dose: 400.0 mg/kg/injection, schedule: Q04DX003 (ip), vehicle: saline with Tween-80
[7] = dose: 50.0 mg/kg/injection, schedule: Q04DX003 (ip), vehicle: saline with Tween-80
[8] = dose: 100.0 mg/kg/injection, schedule: Q01DX009 (ip), vehicle: saline with Tween-80
[9] = dose: 200.0 mg/kg/injection, schedule: Q01DX009 (ip), vehicle: saline with Tween-80
[10] = dose: 400.0 mg/kg/injection, schedule: Q01DX009 (ip), vehicle: saline with Tween-80
[11] = dose: 50.0 mg/kg/injection, schedule: Q01DX009 (ip), vehicle: saline with Tween-80
[12] = dose: 100.0 mg/kg/injection, schedule: Q04DX003 (ip), vehicle: acetone
[13] = dose: 100.0 mg/kg/injection, schedule: Q04DX003 (ip), vehicle: saline
[14] = dose: 200.0 mg/kg/injection, schedule: Q04DX003 (ip), vehicle: saline

Measured: T/C

CCOC(=O)c1ccc(NNS(=O)(=O)c2cccc(N)c2)cc1
inactive: [1] 97 % of control | [2] 96 % of control | [3] 93 % of control | [4] 101 % of control | [5] 101 % of control | [6] 95 % of control

[N-]=[N+]=CC(=O)c1c(Cl)n(-c2ccccc2)c2ccccc12
inactive: [7] 90 % of control | [2] 98 % of control | [4] 101 % of control

c1ccc(N=Nc2n[nH]c3ccccc23)cc1
inactive: [2] 95 % of control | [4] 98 % of control | [6] 95 % of control

C=C(c1cn(C(C)=O)c2ccccc12)c1cn(C(C)=O)c2ccccc12
inactive: [8] 95 % of control | [9] 96 % of control | [10] 98 % of control

Nc1cccc2c1-c1ccccc1C2
inactive: dose: 50.0 mg/kg/injection, schedule: Q04DX003 (ip), vehicle: Klucel (hydroxypropylcellulose) (HPC) 105 % of control | dose: 100.0 mg/kg/injection, schedule: Q04DX003 (ip), vehicle: Klucel (hydroxypropylcellulose) (HPC) 96 % of control | dose: 200.0 mg/kg/injection, schedule: Q04DX003 (ip), vehicle: Klucel (hydroxypropylcellulose) (HPC) 102 % of control

Nc1nc(CCCCc2ccccc2)c(N=Nc2ccc(Cl)cc2)c(=O)[nH]1
inactive: [8] 90 % of control | [9] 90 % of control | [10] 87 % of control

CCOc1ccnc(OCC)n1
inactive: [2] 105 % of control | [4] 102 % of control

COC[C@H]1OC(=O)c2coc3c2[C@@]1(C)C1=C(C3=O)[C@@H]2CCC(=O)[C@@]2(C)C[C@H]1OC(C)=O
inactive: dose: 0.16 mg/kg/injection, schedule: Q01DX009 (ip), vehicle: saline 102 % of control | dose: 0.31 mg/kg/injection, schedule: Q01DX009 (ip), vehicle: saline 98 % of control | dose: 0.63 mg/kg/injection, schedule: Q01DX009 (ip), vehicle: saline 102 % of control | dose: 1.25 mg/kg/injection, schedule: Q01DX009 (ip), vehicle: saline with Tween-80 86 % of control | dose: 1.25 mg/kg/injection, schedule: Q01DX009 (ip), vehicle: saline 110 % of control

CCC(C)C(NC(=O)CN)C(=O)O (stereo not given) (H-Gly-[ξI]-OH)
inactive: dose: 100.0 mg/kg/injection, schedule: Q04DX002 (ip), vehicle: saline with Tween-80 100 % of control | dose: 100.0 mg/kg/injection, schedule: Q04DX002 (ip), vehicle: saline 94 % of control | dose: 200.0 mg/kg/injection, schedule: Q04DX002 (ip), vehicle: saline with Tween-80 103 % of control | dose: 200.0 mg/kg/injection, schedule: Q04DX002 (ip), vehicle: saline 90 % of control | dose: 400.0 mg/kg/injection, schedule: Q04DX002 (ip), vehicle: saline with Tween-80 95 % of control | dose: 400.0 mg/kg/injection, schedule: Q04DX002 (ip), vehicle: saline 101 % of control

COc1ccc(-c2cc(C(=O)O)c3cccc(C)c3n2)cc1
inactive: [11] 95 % of control | [8] 95 % of control | [2] 98 % of control | [9] 95 % of control | [4] 95 % of control

O=C1CCC(=O)N1C1C=CC=CC=C1
inactive: dose: 50.0 mg/kg/injection, schedule: Q04DX003 (ip), vehicle: acetone 98 % of control | [12] 107 % of control

O=C1C(=O)c2ccccc2C(O)=C1CCCc1ccc(OCc2ccccc2)cc1
inactive: [13] 86 % of control | [14] 88 % of control

CC(=O)OCC1OC(n2c(Br)nc3c(=O)[nH]c(N)nc32)C(OC(C)=O)C1OC(C)=O (stereo not given)
inactive: [2] 100 % of control | [4] 105 % of control | [6] 107 % of control

OC1CCC(O)C2C3CCC(C3)C12 (stereo not given)
inactive: [8] 98 % of control | [9] 100 % of control | [10] 102 % of control

c1cc2c3c(cccc3c1)N=S=N2
inactive: [2] 89 % of control | [4] 89 % of control | [6] 86 % of control

Cc1cccc(CC(F)F)c1
inactive: [7] 109 % of control | dose: 100.0 mg/kg/injection, schedule: Q01DX001 (ip), vehicle: saline with Tween-80 104 % of control | [2] 97 % of control | dose: 200.0 mg/kg/injection, schedule: Q01DX001 (ip), vehicle: saline with Tween-80 103 % of control | [4] 96 % of control

CCCCC(C)(C(=O)OCC)C(=O)OCC
inactive: dose: 12.5 mg/kg/injection, schedule: Q01DX009 (ip), vehicle: Klucel (hydroxypropylcellulose) (HPC) 98 % of control | dose: 25.0 mg/kg/injection, schedule: Q01DX009 (ip), vehicle: Klucel (hydroxypropylcellulose) (HPC) 98 % of control | dose: 50.0 mg/kg/injection, schedule: Q01DX009 (ip), vehicle: Klucel (hydroxypropylcellulose) (HPC) 108 % of control | [1] 98 % of control | [3] 98 % of control | [5] 106 % of control

Cc1n(Cc2ccc(Cl)cc2Cl)cc[n+]1Cc1ccccc1
inactive: dose: 10.0 mg/kg/injection, schedule: Q04DX003 (ip), vehicle: Klucel (hydroxypropylcellulose) (HPC) 100 % of control | dose: 20.0 mg/kg/injection, schedule: Q04DX003 (ip), vehicle: Klucel (hydroxypropylcellulose) (HPC) 105 % of control | dose: 40.0 mg/kg/injection, schedule: Q04DX003 (ip), vehicle: Klucel (hydroxypropylcellulose) (HPC) 92 % of control

O=c1[nH]cc(Br)c2sccc12
inactive: [11] 102 % of control | [8] 104 % of control

C/C(=N\N=C(/C)c1cccc([N+](=O)[O-])c1)c1cccc([N+](=O)[O-])c1
inactive: dose: 100.0 mg/kg/injection, schedule: Q04DX002 (ip), vehicle: Klucel (hydroxypropylcellulose) (HPC) 104 % of control | dose: 200.0 mg/kg/injection, schedule: Q04DX002 (ip), vehicle: Klucel (hydroxypropylcellulose) (HPC) 97 % of control | dose: 400.0 mg/kg/injection, schedule: Q04DX002 (ip), vehicle: Klucel (hydroxypropylcellulose) (HPC) 108 % of control

Cc1ccc2nc(-c3ccc(NC(=O)c4ccc(C(=O)Nc5ccc(-c6nc7ccc(C)cc7s6)cc5)cc4)cc3)sc2c1
inactive: dose: 100.0 mg/kg/injection, schedule: Q01DX001 (ip), vehicle: saline 89 % of control | dose: 200.0 mg/kg/injection, schedule: Q01DX001 (ip), vehicle: saline 89 % of control | dose: 400.0 mg/kg/injection, schedule: Q01DX001 (ip), vehicle: saline 86 % of control

CC(=O)c1ccc2sc3ccccc3c2c1
inactive: [8] 98 % of control | [9] 93 % of control | [10] 93 % of control

OC(c1ccccc1)(c1ccccc1)c1ccccc1 (tested in a mixture with another compound)
inactive: [2] 98 % of control | [4] 91 % of control | [6] 97 % of control

C[Si](F)(c1cccc2ccccc12)c1cccc2ccccc12
inactive: [8] 93 % of control | [9] 98 % of control | [10] 96 % of control

CCOC(=O)C12CCCCCC1CC(=O)CC2 (stereo not given)
inactive: [12] 96 % of control | dose: 200.0 mg/kg/injection, schedule: Q04DX003 (ip), vehicle: acetone 93 % of control | dose: 400.0 mg/kg/injection, schedule: Q04DX003 (ip), vehicle: acetone 86 % of control

c1ccc(C2=NC3CCCCC3N=C2c2ccccc2)cc1 (stereo not given)
inactive: [8] 109 % of control | [9] 113 % of control | [10] 103 % of control

CC(O)C(C)(C)CO (stereo not given)
inactive: [13] 88 % of control | [14] 88 % of control | dose: 400.0 mg/kg/injection, schedule: Q04DX003 (ip), vehicle: saline 93 % of control

N/C(=N\c1nc(N)cc(=O)[nH]1)Nc1ccc(S(N)(=O)=O)cc1
inactive: dose: 100.0 mg/kg/injection, schedule: Q01DX009 (ip), vehicle: saline 96 % of control | dose: 200.0 mg/kg/injection, schedule: Q01DX009 (ip), vehicle: saline 95 % of control | dose: 400.0 mg/kg/injection, schedule: Q01DX009 (ip), vehicle: saline 95 % of control
